Laboratory results taken from patent publication US20080255213A1, “THIAZOLIDINONE AMIDES, THIAZOLIDINE CARBOXYLIC ACID AMIDES, AND SERINE AMIDES, INCLUDING POLYAMINE CONJUGATES THEREOF, AS SELECTIVE ANTI-CANCER AGENTS” (University of Tennessee Research Foundation, priority 2007, published 2008).
Like-named read-outs stand apart in the source and are kept apart here.

Tests used:
[1] = tested on: SK-MEL-188 melanoma cell line; assay: Sulforhodamine B (SRB) cytotoxicity assay, SK-MEL-188; type: cell-based; settings: Homo sapiens, 48 h exposure, diastereomeric mixtures, value ± standard error, read-out: IC50 ± SEM SK-MEL-188 (converted)
Experimental: (§1) Cytotoxicity of these newly synthesized compounds was examined in two human melanoma cell lines (SK-MEL-188 and WM-164) and in a fibroblast cell line. Activity on fibroblast cells was used as a control to determine the selectivity of these compounds against melanoma. Standard sulforhodamine B (SRB) assay was used. Cells were exposed to a wide range of concentrations for 48 h in round-bottom 96-well plates. Cells were fixed with 10% trichloroacetic acid and washed five times with water. After cells were air-dried overnight and stained with SRB solution, total proteins were measured at 560 nm with a plate reader. IC50 (i.e., concentration which inhibited cell growth by 50% of DMSO-treated controls) values were obtained by nonlinear regression analysis with GraphPad Prism (GraphPad Software, San Diego, Calif.).
(§2) The ability of thiazolidine derivatives to inhibit the growth of two melanoma cancer cell lines and fibroblast cells is summarized in Table 1. […] At this early stage, all compounds were used as a diastereomeric mixture if they contain chiral centers in order to select the most promising compounds for further development.

[2] = tested on: WM-164 melanoma cell line; assay: Sulforhodamine B (SRB) cytotoxicity assay, WM-164; type: cell-based; settings: Homo sapiens, WM164, 48 h exposure, diastereomeric mixtures, value ± standard error, read-out: IC50 ± SEM WM-164 (converted)
Experimental: as §1, §2

fibroblast cell line = assay: Sulforhodamine B (SRB) cytotoxicity assay, fibroblast control; type: cell-based; settings: 48 h exposure, control for selectivity, value ± standard error, read-out: IC50 ± SEM Fibroblast (converted)
Experimental: as §1, §2

melanoma cells = assay: SRB cytotoxicity assay, statements not tied to one cell line; type: cell-based, human; settings: for potency/activity in words: melanoma cells and fibroblast cells; for IC50: Homo sapiens; for selectivity in words: melanoma versus fibroblast cells
Experimental: as §1, §2

[3] = summary over the cell lines, read-out: IC50 in the in vitro assay (cell line not given)

Row | Structure (SMILES) | IC50 [1] [µM] | IC50 [2] [µM] | IC50 (fibroblast cell line) [µM] | potency/activity in words (melanoma cells) | IC50 (melanoma cells; melanoma cells, lowest value stated in text, read-out: IC50 for melanoma cells (as low as)) [µM] | selectivity in words (melanoma cells) | IC50 (melanoma cells; [3]) [µM]
1 | CCCCCCCCNC(=O)[C@@H]1CSC(c2cc(OC)c(OC)c(OC)c2)N1 (stereo partly drawn) [Compound 301, (4R)-2-(3,4,5-trimethoxyphenyl)-N-octylthiazolidine-4-carboxamide] | 17.1 ± 0.6 | 19.6 ± 0.9 | 20.8 ± 10.4 | – | – | – | –
2 | CCCCCCCCCCNC(=O)[C@@H]1CSC(c2cc(OC)c(OC)c(OC)c2)N1 (stereo partly drawn) [Compound 302, (4R)—N-decyl-2-(3,4,5-trimethoxyphenyl)thiazolidine-4-carboxamide] | 14.5 | 2.1 | 6.7 | low potency | – | – | –
3 | CCCCCCCCCCCCNC(=O)[C@@H]1CSC(c2cc(OC)c(OC)c(OC)c2)N1 (stereo partly drawn) [Compound 303, (4R)—N-dodecyl-2-(3,4,5-trimethoxyphenyl)thiazolidine-4-carboxamide] | 2.1 | 2.4 | 2.4 | – | – | – | –
4 | CCCCCCCCCCCCCCNC(=O)[C@@H]1CSC(c2cc(OC)c(OC)c(OC)c2)N1 (stereo partly drawn) [Compound 304, (4R)-2-(3,4,5-trimethoxyphenyl)-N-tetradecylthiazolidine-4-carboxamide] | 2 | 1.6 | 2.6 | – | – | – | –
5 | CCCCCCCCCCCCCCCCNC(=O)[C@@H]1CSC(c2cc(OC)c(OC)c(OC)c2)N1 (stereo partly drawn) [Compound 305, (4R)—N-hexadecyl-2-(3,4,5-trimethoxyphenyl)thiazolidine-4-carboxamide] | 1.8 | 0.7 | 2.4 | – | – | – | –
6 | CCCCCCCCCCNC(=O)[C@@H]1CSC(c2ccc(OC)c(OC)c2)N1 (stereo partly drawn) [Compound 306, (4R)—N-decyl-2-(3,4-dimethoxyphenyl)thiazolidine-4-carboxamide] | 11.9 | 6.1 | 6.3 | low potency | – | – | –
7 | CCCCCCCCCCCCNC(=O)[C@@H]1CSC(c2ccc(OC)c(OC)c2)N1 (stereo partly drawn) [Compound 307, (4R)—N-dodecyl-2-(3,4-dimethoxyphenyl)thiazolidine-4-carboxamide] | 2.9 | 1.6 | 4.5 | – | – | – | –
8 | CCCCCCCCCCCCCCNC(=O)[C@@H]1CSC(c2ccc(OC)c(OC)c2)N1 (stereo partly drawn) [Compound 308, (4R)-2-(3,4-dimethoxyphenyl)-N-tetradecylthiazolidine-4-carboxamide] | 1.5 | 0.8 | 2.8 | – | – | – | –
9 | CCCCCCCCCCCCCCCCNC(=O)[C@@H]1CSC(c2ccc(OC)c(OC)c2)N1 (stereo partly drawn) [Compound 309, (4R)—N-hexadecyl-2-(3,4-dimethoxyphenyl)thiazolidine-4-carboxamide] | 1.5 | 0.5 | 2.1 | – | – | – | –
10 | CCCCCCCCCCNC(=O)[C@@H]1CSC(c2ccc3c(c2)OCO3)N1 (stereo partly drawn) [Compound 310, (4R)-2-(benzo[d][1,3]dioxol-5-yl)-N-decylthiazolidine-4-carboxamide] | 6.6 | 4.5 | 8.2 | low potency | – | – | –
11 | CCCCCCCCCCCCNC(=O)[C@@H]1CSC(c2ccc3c(c2)OCO3)N1 (stereo partly drawn) [Compound 311, (4R)-2-(benzo[d][1,3]dioxol-5-yl)-N-dodecylthiazolidine-4-carboxamide] | 3.5 | 2.5 | 5.2 | – | – | – | –
12 | CCCCCCCCCCCCCCNC(=O)[C@@H]1CSC(c2ccc3c(c2)OCO3)N1 (stereo partly drawn) [Compound 312, (4R)-2-(benzo[d][1,3]dioxol-5-yl)-N-tetradecylthiazolidine-4-carboxamide] | 1.6 | 1 | 4.2 | – | – | – | –
13 | CCCCCCCCCCCCCCCCNC(=O)[C@@H]1CSC(c2ccc3c(c2)OCO3)N1 (stereo partly drawn) [Compound 313, (4R)-2-(benzo[d][1,3]dioxol-5-yl)-N-hexadecylthiazolidine-4-carboxamide] | 1.6 | 1.8 | 5.7 | – | – | – | –
14 | CCCCCCCCCCCCNC(=O)[C@@H]1CSC(c2ccc(NC(C)=O)cc2)N1 (stereo partly drawn) [Compound 314, (4R)-2-(4-acetamidophenyl)-N-dodecylthiazolidine-4-carboxamide] | 2.4 | 1.2 | 3.5 | – | – | – | –
15 | CCCCCCCCCCCCCCNC(=O)[C@@H]1CSC(c2ccc(NC(C)=O)cc2)N1 (stereo partly drawn) [Compound 315, (4R)-2-(4-acetamidophenyl)-N-tetradecylthiazolidine-4-carboxamide] | 2.3 | 0.6 | 3.6 | – | – | – | –
16 | CCCCCCCCCCCCCCCNC(=O)[C@@H]1CSC(c2ccc(NC(C)=O)cc2)N1 (stereo partly drawn) [Compound 316, (4R)-2-(4-acetamidophenyl)-N-pentadecylthiazolidine-4-carboxamide] | 1.6 | 1 | 14.3 | – | – | – | –

Row | Structure (SMILES) | IC50 [1] [µM] | IC50 [2] [µM] | IC50 (fibroblast cell line) [µM] | potency/activity in words (melanoma cells) | IC50 (melanoma cells; melanoma cells, lowest value stated in text, read-out: IC50 for melanoma cells (as low as)) [µM] | selectivity in words (melanoma cells) | IC50 (melanoma cells; [3]) [µM]
17 | CCCCCCCCCCCCCCCCNC(=O)[C@@H]1CSC(c2ccc(NC(C)=O)cc2)N1 (stereo partly drawn) [Compound 317, (4R)-2-(4-acetamidophenyl)-N-hexadecylthiazolidine-4-carboxamide] | 2.1 | 0.6 | 19.1 | – | 0.6 | – | –
18 | CCCCCCCCCCCCCCCCCNC(=O)[C@@H]1CSC(c2ccc(NC(C)=O)cc2)N1 (stereo partly drawn) [Compound 318, (4R)-2-(4-acetamidophenyl)-N-heptadecylthiazolidine-4-carboxamide] | 8.5 | 2.4 | 35.8 | – | – | – | –
19 | CCCCCCCCC/C=C/CCCCCCCNC(=O)[C@@H]1CSC(c2ccc(NC(C)=O)cc2)N1 (stereo partly drawn) [Compound 320E, (4R)-2-(4-acetamidophenyl)-N-((E)-octadec-8-enyl)thiazolidine-4-carboxamide] | 3.3 | 1.4 | 18 | restored potency dramatically | – | – | –
20 | CCCCCCCCC/C=C\CCCCCCCNC(=O)[C@@H]1CSC(c2ccc(NC(C)=O)cc2)N1 (stereo partly drawn) [Compound 320Z, (4R)-2-(4-acetamidophenyl)-N-((Z)-octadec-8-enyl)thiazolidine-4-carboxamide] | 1.4 | 1 | 10.6 | restored potency dramatically | – | – | –
21 | CCCCCCCCCCCCCCNC(=O)[C@@H]1CSC(c2ccccc2)N1 (stereo partly drawn) [Compound 321, (4R)-2-phenyl-N-tetradecylthiazolidine-4-carboxamide] | 1.9 | 0.6 | 2.8 | – | – | loss of selectivity | –
22 | CCCCCCCCCCCCCCCCNC(=O)[C@@H]1CSC(c2ccccc2)N1 (stereo partly drawn) [Compound 322, (4R)—N-hexadecyl-2-phenylthiazolidine-4-carboxamide] | 1.9 | 0.7 | 2.2 | – | – | loss of selectivity | –
23 | CON(C)C(=O)[C@@H]1CSC(c2ccccc2)N1 (stereo partly drawn) [Compound 323, (4R)—N-methoxy-N-methyl-2-phenylthiazolidine-4-carboxamide] | > 100 | > 100 | > 100 | completely abolished potency | – | – | –
24 | CCCCCCCCCCCCCCNC(=O)[C@H]1CSC(c2cc(OC)c(OC)c(OC)c2)N1 (stereo partly drawn) [Compound 324, (4S)-2-(3,4,5-trimethoxyphenyl)-N-tetradecylthiazolidine-4-carboxamide] | 2.6 ± 0.2 | 1.1 ± 0.1 | 4.1 ± 0.7 | – | – | – | –
25 | CCCCCCCCCCCCCCCCNC(=O)[C@H]1CSC(c2ccc(NC(C)=O)cc2)N1 (stereo partly drawn) [Compound 325, (4S)-2-(4-acetamidophenyl)-N-hexadecylthiazolidine-4-carboxamide] | 3.2 | 1.4 | 22.6 | – | – | – | –
26 | CCCCCCCCCCCCNC(=O)[C@@H]1CSC(c2ccc(N)cc2)N1 (stereo partly drawn) [Compound 326, (4R)-2-(4-aminophenyl)-N-dodecylthiazolidine-4-carboxamide] | 2.2 | 1.4 | 4.1 | – | – | – | –
27 | CCCCCCCCCCCCCCCCNC(=O)[C@@H]1CSC(c2ccc(N)cc2)N1 (stereo partly drawn) [Compound 327, (4R)-2-(4-aminophenyl)-N-hexadecylthiazolidine-4-carboxamide] | 2.3 | 1.4 | 7.4 | – | – | – | –
28 | CCCCCCCCCCCCCCNC(=O)[C@@H]1CSC(c2ccccc2)=N1 [Compound 328, (R)-4,5-dihydro-2-phenyl-N-tetradecylthiazole-4-carboxamide] | 42.1 ± 5 | > 50 | > 50 | – | – | – | > 20
29 | CCCCCCCCCCCCCCNC(=O)[C@@H]1CSC(c2ccc(OC)c(OC)c2)=N1 [Compound 329, (R)-4,5-dihydro-2-(3,4-dimethoxyphenyl)-N-tetradecylthiazole-4-carboxamide] | 19.1 | 42.9 | > 50 | – | – | – | > 20
30 | CCCCCCCCCCCCCCCCNC(=O)[C@@H]1CSC(c2ccccc2NC(C)=O)N1C (stereo partly drawn) [Compound 330, (4R)-2-(2-acetamidophenyl)-N-hexadecyl-3-methylthiazolidine-4-carboxamide] | 29.1 ± 1 | > 100 | > 100 | – | – | – | > 20
31 | CN(C)/N=N/c1[nH]cnc1C(N)=O [DTIC, dacarbazine, reference compound] | > 100 | > 100 | – | – | – | – | > 100
